Assay results from US8846912B2, “Tartrate salts of quinazoline based EGFR inhibitors containing a zinc binding moiety” (Curis, Inc., priority 2007, dated 2014).
Like-named read-outs stand apart in the source and are kept apart here.

Experiments:
[1] = molecular target: T1, human EGFR(His672-Ala1210) (Homo sapiens, UniProt P00533); assay: EGFR kinase assay (HTScan EGF Receptor Kinase Assay Kit); type: biochemical; conditions: FIG. 1
T1 construct: a construct expressing human EGFR(His672-Ala1210); GST (N); purchased Cell Signaling Technologies; host or cells: baculovirus expression system
Protocol: The ability of compounds to inhibit receptor kinase (EGFR) activity was assayed using HTScan™ EGF Receptor Kinase Assay Kits (Cell Signaling Technologies, Danvers, Mass.). […] The protein was purified by one-step affinity chromatography using glutathione-agarose.
Immediately transfer enzyme from −80° C. to ice. Allowed enzyme to thaw on ice. […] Returned immediately to ice. […] Incubated reaction plate at room temperature for 30 minutes. […] Added 100 μl/well primary antibody. Incubated at room temperature for 60 minutes. […] Added 100 μl/well diluted antibody. Incubated at room temperature for 30 minutes. […] Incubated at room temperature for 5 minutes.

Caki-1 Renal carcinoma = assay: Cell proliferation assay (ATPlite); type: cell-based; conditions: Homo sapiens; Caki-1, Renal carcinoma (Table D); read-out: IC50 in cancer cell line
Protocol: (§1) Cell Proliferation Assay:
(§2) Cancer cell lines were plated at 5,000 to 10,000 per well in 96-well flatted bottomed plates with various concentration of compounds. […] Growth inhibition was accessed by adenosine triphosphate (ATP) content assay using Perkin Elmer ATPlite kit. ATPlite is an ATP monitoring system based on firefly luciferase. Briefly, 25 μl of mammalian cell lysis solution was added to 50 μl of phenol red-free culture medium per well to lyse the cells and stabilize the ATP. 25 μl of substrate solution was then added to the well and subsequently the luminescence was measured.

[2] = test system: colon and breast cancer cells (HCT-116, SKBr3); assay: Induction of apoptosis (Caspase 3&7 activity); type: cell-based; conditions: HCT-116 and SKBr3, 24 hours; FIG. 4
[3] = test system: HDAC in MDA-MB-468 breast cancer cell line; assay: Histone acetylation (Ac-H4, Ac-H3 accumulation) in cells; type: cell-based; conditions: FIG. 2
Source text: (§3) FIG. 2 illustrates inhibition of HDAC and EGFR in MDA-MB-468 breast cancer cell line: (a) Ac-H4 Accumulation, (b) Ac-H3 Accumulation, (c) EGFR inhibition.

[4] = test system: EGFR in MDA-MB-468 breast cancer cell line; assay: EGFR phosphorylation in cells; type: cell-based; conditions: FIG. 2
Source text: as §3

[5] = test system: various cancer cell lines; assay: Cell proliferation assay, various cancer cell lines; type: cell-based; conditions: Table D, FIG. 3
Protocol: as §1
Cancer cell lines were plated at 5,000 to 10,000 per well in 96-well flatted bottomed plates with various concentration of compounds. The cells were incubated with compounds for 72 hours in the presence of 0.5% of fetal bovine serum. Growth inhibition was accessed by adenosine triphosphate (ATP) content assay using Perkin Elmer ATPlite kit. ATPlite is an ATP monitoring system based on firefly luciferase. Briefly, 25 μl of mammalian cell lysis solution was added to 50 μl of phenol red-free culture medium per well to lyse the cells and stabilize the ATP. 25 μl of substrate solution was then added to the well and subsequently the luminescence was measured.

[6] = Dilution study with D5W (precipitation, chemical stability); type: physicochemical; conditions: 60 mg/ml compound 12 with tartaric acid (1.3 eq) in 30% CAPTISOL, diluted in 1x water and 2x D5W
[7] = Stability of CAPTISOL solution at room temperature; type: physicochemical; conditions: 25 mg/ml compound 12 with 8.6 mg tartaric acid in 30% CAPTISOL
[8] = Pharmacokinetic study of compound 12 formulation in mice (iv, ip); type: in vivo; conditions: hydrochloride salt
[9] = Pharmacokinetic study of compound 12 formulation in rats; type: in vivo; conditions: hydrochloride salt in 30% CAPTISOL, 20 and 60 mg/kg iv, FIG. 14
Protocol: (§4) Compound was administered via an intravenous (iv) infusion.
Rat: 20 mg/kg for 5 min i.v. infusion
(§5) Plasma samples were prepared by protein precipitation. An internal standard was added into plasma samples. […] The supernatant was then injected onto LC/MS/MS.
(§6) Samples were compared to standards made in plasma. These standards were prepared by serial dilution.

[10] = Pharmacokinetic study of compound 12 in dogs; type: in vivo; conditions: 25 mg/kg tartrate salt in 30% CAPTISOL, FIG. 19
Protocol: as §4
Beagle: 25 mg/kg for 30 min i.v. infusion
as §5, §6

A549 NSCLC Xenograft = assay: A549 NSCLC xenograft model; type: in vivo; conditions: FIG. 11A, 11B
[11] = test system: HPAC pancreatic cancer cells; assay: HPAC pancreatic cancer tumor model; type: in vivo; conditions: 120 mg/kg in 30% CAPTISOL (iv/ip) daily; FIG. 12A
[12] = male, CD-1, mouse, in vivo, iv, 9 days
Protocol: Single dosing MTD in mice • a. CD-1 mice, male, 24-26 gram • b. Dosing at 0, 50, 100, 200, 400 mg/kg, iv infusion 2 min • c. 8 mice per group
(§7) Stock solution is diluted with 30% CAPTISOL® before use.

[13] = male, CD-1, mouse, in vivo, ip, 7 days
Protocol: 7-day-multiple dosing MTD in mice • a. CD-1 mice, male, 24-26 gram • b. Dosing at 0, 50, 100, 200 mg/kg/d ip • c. 6 mice per group • d. Blood and organs will be collected 2 hr after last dosing on Day 7 for hematology
as §7

[14] = both, Sprague Dawley, rat, in vivo, iv, 8 days
Protocol: Single dosing MTD in rats • a. Sprague Dawley, male and female, 240-260 gram • b. Dosing at 0, 25, 50, 100, 200 mg/kg, iv infusion 5 min • c. 6 rats per group (3 male and 3 female)
as §7

[15] = both, Sprague Dawley, rat, in vivo, iv, 7 days
Protocol: 4. 7-day multiple dosing MTD in rats • a. Sprague Dawley, male and female, 220-250 gram • b. Dose, 25, 50, 100, 200 mg/kg/d) iv infusion 5 min • c. 6 per group (3 male and 3 female) • d. Blood and organs will be collected 2 hr after last dosing on Day 7 for hematology Compound Preparation.
as §7

Breast_MCF7 = assay: Cell proliferation assay (ATPlite); type: cell-based; conditions: Homo sapiens, MCF7; MCF-7, Breast adenocarcinoma (Table D); read-out: IC50 in cancer cell line
Protocol: as §1, §2

Breast_SkBr3 = assay: Cell proliferation assay (ATPlite); type: cell-based; conditions: Homo sapiens, SK-BR-3; SKBr3, Breast carcinoma (Table D); read-out: IC50 in cancer cell line
Protocol: as §1, §2

Colon_HCT116 = assay: Cell proliferation assay (ATPlite); type: cell-based; conditions: Homo sapiens, HCT-116; HCT116, Colon cancer (Table D); read-out: IC50 in cancer cell line
Protocol: as §1, §2

[16] = test system: MDA-MB-231 Breast adenocarcinoma; assay: Cell proliferation assay (ATPlite); type: cell-based; conditions: Homo sapiens; MDA-MB-231, Breast adenocarcinoma (Table D); read-out: IC50 in cancer cell line
Protocol: as §1, §2

Prostate_PC3 = assay: Cell proliferation assay (ATPlite); type: cell-based; conditions: PC-3, Prostate adenocarcinoma (Table D); read-out: IC50 in cancer cell line
Protocol: as §1, §2

T1 sequence (P00533 672-1210): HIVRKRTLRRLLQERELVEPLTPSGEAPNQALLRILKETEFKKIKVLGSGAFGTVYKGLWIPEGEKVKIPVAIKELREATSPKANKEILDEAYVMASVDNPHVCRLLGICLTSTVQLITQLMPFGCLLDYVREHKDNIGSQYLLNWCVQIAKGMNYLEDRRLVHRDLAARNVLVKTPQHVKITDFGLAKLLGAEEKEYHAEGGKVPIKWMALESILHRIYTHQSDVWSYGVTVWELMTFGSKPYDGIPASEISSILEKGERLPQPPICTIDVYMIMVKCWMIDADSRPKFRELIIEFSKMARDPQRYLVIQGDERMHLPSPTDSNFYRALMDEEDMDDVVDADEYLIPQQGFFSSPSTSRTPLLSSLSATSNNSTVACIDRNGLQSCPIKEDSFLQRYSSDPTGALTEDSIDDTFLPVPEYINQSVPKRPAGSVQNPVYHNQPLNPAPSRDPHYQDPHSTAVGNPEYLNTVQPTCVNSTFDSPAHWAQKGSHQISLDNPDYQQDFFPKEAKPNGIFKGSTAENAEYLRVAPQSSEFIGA

C#Cc1cccc(Nc2ncnc3cc(OC)c(OCCCCCCC(=O)NO)cc23)c1 [Compound 12, 7-(4-(3-ethynylphenylamino)-7-methoxyquinazolin-6-yloxy)-N-hydroxyheptanamide]
activity in EGFR enzyme assay compared with erlotinib [1]: more active than erlotinib and SAHA
IC50 (Caki-1 Renal carcinoma): ≤ 0.05 µM
cell apoptosis measured by increased Caspase 3&7 activity [2]: 4-11 times
inhibition of histone acetylation compared with SAHA [3]: improvement in inhibition of histone acetylation
inhibition of EGFR phosphorylation compared with Erlotinib [4]: improvement in inhibition of histone acetylation and EGFR phosphorylation
anti-proliferative activity compared with Erlotinib, SAHA and their combination [5]: more active than Erlotinib and SAHA
stability of diluted solution at room temperature [6]: > 12 h
stability of solution [7]: stable at room temperature
dose proportionality of concentration ([8]; 20 and 60 mg/kg, iv and ip): dose proportional when administered intravenously but not intraperitoneally
half-life in tissue versus plasma ([8]; lung, colon, plasma): greater than that in plasma
dose proportionality of plasma concentration [9]: proportional to the dose
concentration in plasma in 4 hours [10]: less than 10 mg/ml
effect on tumor growth / tumor size (A549 NSCLC Xenograft): attenuated tumor growth
attenuation of tumor growth [11]: greater attenuation of tumor growth than either erlotinib (po) or vehicle
dose without significant change in body weight [12]: up to 200 mg/kg
dose without significant change in body weight [13]: up to 100 mg/kg
dose without significant change in body weight [14]: up to 200 mg/kg
dose without significant change in body weight or food consumption [15]: up to 100 mg/kg

C#Cc1cccc(Nc2ncnc3cc(OCCOC)c(OCCOC)cc23)c1 [Erlotinib]
IC50 (Breast_MCF7): ≤ 5 µM
IC50 (Breast_SkBr3): ≤ 5 µM
IC50 (Colon_HCT116): ≤ 5 µM
IC50 [16]: ≤ 5 µM
IC50 (Prostate_PC3): ≤ 5 µM
effect on tumor growth / tumor size (A549 NSCLC Xenograft): did not significantly affect tumor size as compared to control
